# Experimental data reported in US20240199542A1, “SUBSTITUTED PYRROLIDIN-2-ONES, SALTS THEREOF AND THEIR USE AS HERBICIDALLY ACTIVE SUBSTANCES” (Bayer Aktiengesellschaft, priority 2021, published 2024).
# How the values were obtained:
# Type in all cases: in vivo
# [1] = system: Lolium multiflorum (LOLMU); assay: Herbicidal post-emergence action; conditions: assessed after ca. 3 weeks
# Text: (§1) Seeds of mono- and dicotyledonous weed plants and crop plants were sown, in plastic or organic planting pots, in sandy loam, covered with soil and grown in a greenhouse under controlled growth conditions. 2 to 3 weeks after sowing, the test plants were sprayed in the single-leaf stage. The compounds according to the invention, formulated in form of wettable powders (WP) or as emulsifiable concentrates (EC), were sprayed onto the green plant parts as aqueous suspension or emulsion, with the addition of 0.5% of an additive, at an application rate of 600 1 of water/ha (converted). The test plants were placed in the greenhouse for ca. 3 weeks under optimum growth conditions, and then the effect of the preparations was assessed visually in comparison with untreated controls (herbicidal effect in percent (%): 100% effect=plants have died off, 0% effect=as control plants).
# (§2) Tables B1 to B16 below show the effects of selected compounds of the general formula (I) according to table 1 on various harmful plants and an application rate corresponding to 1280 g/ha or 320 g/ha obtained by the experimental procedure mentioned above.
# [2] = system: Alopecurus myosuroides (ALOMY); assay: Herbicidal post-emergence action; conditions: 1280 g/ha, assessed after ca. 3 weeks
# Text: as §1, §2
# [3] = system: Echinochloa crus-galli (ECHCG); assay: Herbicidal post-emergence action; conditions: assessed after ca. 3 weeks
# Text: as §1, §2
# [4] = system: Cyperus esculentus (CYPES); assay: Herbicidal pre-emergence action; conditions: graded after ca. 3 weeks
# Text: (§3) Seeds of mono- and dicotyledonous weed plants and crop plants were sown, in plastic or organic planting pots, in sandy loam and covered with soil. The compounds according to the invention, formulated in the form of wettable powders (WP) or as emulsifiable concentrates (EC), were applied to the surface of the covering soil as aqueous suspension or emulsion, with the addition of 0.5% of an additive, at an application rate of 600 1 of water/ha (converted).
# (§4) Following treatment, the pots were placed in a greenhouse and kept under optimum growth conditions for the test plants. The visual grading of the damage to the test plants was carried out after ca. 3 weeks in comparison to untreated controls (herbicidal effect in percent (%): 100% effect=plants have died off, 0% effect=as control plants).
# (§5) Tables A1 to A16, below, show the effects of selected compounds of the general formula (I) according to table 1 on various harmful plants and an application rate corresponding to 1280 g/ha or lower obtained by the experimental procedure mentioned above.
# Avena fatua (AVEFA) [5] = assay: Herbicidal pre-emergence action; conditions: graded after ca. 3 weeks
# Text: as §3, §4, §5
# [6] = system: Alopecurus myosuroides (ALOMY); assay: Herbicidal pre-emergence action; conditions: graded after ca. 3 weeks
# Text: as §3, §4, §5
# [7] = system: Echinochloa crus-galli (ECHCG); assay: Herbicidal pre-emergence action; conditions: 1280 g/ha, graded after ca. 3 weeks
# Text: as §3, §4, §5
# Veronica persica (VERPE) = assay: Herbicidal pre-emergence action; conditions: 1280 g/ha, graded after ca. 3 weeks
# Text: as §3, §4, §5
# Avena fatua (AVEFA) [8] = assay: Herbicidal post-emergence action; conditions: 1280 g/ha, assessed after ca. 3 weeks
# Text: as §1, §2
# [9] = system: Lolium multiflorum (LOLMU); assay: Herbicidal pre-emergence action; conditions: 1280 g/ha, graded after ca. 3 weeks
# Text: as §3, §4, §5
# Setaria viridis (SETVI) [10] = assay: Herbicidal pre-emergence action; conditions: 1280 g/ha, graded after ca. 3 weeks
# Text: as §3, §4, §5
# Setaria viridis (SETVI) [11] = assay: Herbicidal post-emergence action; conditions: 1280 g/ha, assessed after ca. 3 weeks
# Text: as §1, §2
# [12] = system: Polygonum convolvulus (POLCO); assay: Herbicidal post-emergence action; conditions: assessed after ca. 3 weeks
# Text: as §1, §2
# [13] = system: Polygonum convolvulus (POLCO); assay: Herbicidal pre-emergence action; conditions: 1280 g/ha, graded after ca. 3 weeks
# Text: as §3, §4, §5
Compound,Post-emergence activity against LOLMU ([1]; 1280 g/ha),Post-emergence activity against ALOMY [2],Post-emergence activity against ECHCG ([3]; 1280 g/ha),Pre-emergence activity against CYPES ([4]; 1280 g/ha),Pre-emergence activity against AVEFA (Avena fatua (AVEFA) [5]; 1280 g/ha),Pre-emergence activity against ALOMY ([6]; 1280 g/ha),Pre-emergence activity against ECHCG [7],Pre-emergence activity against VERPE (Veronica persica (VERPE)),Post-emergence activity against AVEFA (Avena fatua (AVEFA) [8]),Pre-emergence activity against LOLMU [9],Pre-emergence activity against SETVI (Setaria viridis (SETVI) [10]),Post-emergence activity against SETVI (Setaria viridis (SETVI) [11]),Post-emergence activity against POLCO ([12]; 1280 g/ha),Pre-emergence activity against POLCO [13],Post-emergence activity against LOLMU ([1]; 320 g/ha),Post-emergence activity against ECHCG ([3]; 320 g/ha),Post-emergence activity against POLCO ([12]; 320 g/ha),Pre-emergence activity against CYPES ([4]; 320 g/ha),Pre-emergence activity against AVEFA (Avena fatua (AVEFA) [5]; 320 g/ha),Pre-emergence activity against ALOMY ([6]; 320 g/ha)
O=C(CC1CCC(=O)N1Cc1cccc(F)c1F)OCCS(=O)(=O)c1ccccc1 (racemic) [Example I-032],90%,80%,90%,80%,100%,90%,80%,80%,,,,,,,,,,,,
CCCC(C)OC(=O)CC1CCC(=O)N1Cc1cccc(F)c1F (racemic) [Example I-028],80%,80%,80%,80%,100%,80%,80%,80%,80%,90%,80%,,,,,,,,,
C#CCOC(=O)CC1CCC(=O)N1Cc1cccc(F)c1F (racemic) [Example I-023],80%,80%,90%,80%,100%,90%,80%,80%,80%,80%,90%,80%,,,,,,,,
"Cc1nonc1NC(=O)CC1CCC(=O)N1Cc1cccc(F)c1F (centres unmarked) [Example I-046, 2-[1-[(2,3-difluorophenyl)methyl]-5-oxo-pyrrolidin-2-yl]-N-(4-methyl-1,2,5-oxadiazol-3-yl)acetamide]",80%,,,100%,100%,,,100%,90%,,,,,,,,,,,
COC(=O)C(C(=O)CC1CCC(=O)N1Cc1cccc(F)c1F)C(=O)OC (racemic) [Example I-176],80%,90%,90%,,100%,90%,90%,,80%,90%,,80%,90%,80%,,,,,,
CC(C)(C)COC(=O)CC1CCC(=O)N1Cc1cccc(F)c1F (racemic) [Example I-018],80%,80%,90%,80%,100%,90%,90%,90%,80%,90%,90%,,,80%,,,,,,
CCC(C)OC(=O)CC1CCC(=O)N1Cc1cccc(F)c1F (racemic) [Example I-030],80%,80%,80%,,100%,90%,80%,90%,80%,80%,80%,,,80%,,,,,,
"COC(=O)[C@H](Cc1c[nH]cn1)NC(=O)CC1CCC(=O)N1Cc1cccc(F)c1F (single isomer, unassigned) [Example I-037]",,80%,,100%,100%,90%,90%,,90%,90%,90%,,80%,,,,,,,
CCCNC(=O)CC1CCC(=O)N1Cc1cccc(F)c1F (racemic) [Example I-110],,,,,,,,,,,,,80%,,,,,,,
O=C(CC1CCC(=O)N1Cc1cccc(F)c1F)OC1CCCC1 (racemic) [Example I-017],,80%,90%,,100%,90%,90%,,90%,80%,90%,,80%,80%,,,,,,
O=C(CC1CCC(=O)N1Cc1cccc(F)c1F)OCCOc1ccccc1 (racemic) [Example I-027],,,,,,,,,,,,,,,80%,90%,80%,80%,90%,80%
O=C(CC1CCC(=O)N1Cc1cccc(F)c1F)N1CCCC1 (racemic) [Example I-071],,,,,90%,80%,,,80%,,,,80%,80%,,,,,,
